These results are taken from patent US20240229116A9, “METHOD FOR DETECTING MICRORNA IN BIOLOGICAL SAMPLE, COMPOSITION OF HYDROCHLORIDE OF NEUTRAL AMINO ACID, AND CONTAINER” (Toray Industries, Inc., priority 2021, published 2024).

In data set [1] the test system is microRNAs in serum. The data set is described as follows: Detection of microRNAs from serum preserved after mixing with acid (3D-Gene DNA microarray, total fluorescence intensity). More on the design: species or system human. The protocol:
The serum which had been mixed with the acid in the step (A) was left to stand and preserved at 23° C. for 48 hours.
A quantity of 27 μL of a 4 M aqueous solution of tris(hydroxymethyl)aminomethane (manufactured by Nacalai Tesque Inc.) was mixed with the serum preserved in the step (B). […]
From the serum which had been mixed with the base in the step (C), microRNAs were collected using an RNA extraction reagent included in a 3D-Gene (registered trademark) RNA extraction reagent from liquid sample kit (manufactured by Toray Industries, Inc.), in accordance with the protocol defined by the company.
The microRNAs collected from the serum in the step (D) were fluorescently labeled, using a 3D-Gene (registered trademark) miRNA Labeling kit (manufactured by Toray Industries, Inc.), and in accordance with the protocol defined by the company. Using a 3D-Gene (registered trademark) Human miRNA Oligo chip (manufactured by Toray Industries, Inc.) containing probes having sequences complementary to 2,565 types of microRNAs, as a DNA microarray chip, hybridization was carried out in accordance with the protocol defined by the company. The DNA microarray chip was scanned using a 3D-Gene (registered trademark) scanner (manufactured by Toray Industries, Inc.), to obtain an image. The fluorescence intensities were digitized using a 3D-Gene (registered trademark) Extraction (manufactured by Toray Industries, Inc.), and the total value of the fluorescence intensities of the microRNAs which had been detected exceeding the detection limit was calculated, and the calculated value was defined as the detection level of the microRNAs.

Data set [2] can be described thus: pH adjustment of serum (dissolved state in serum and pH of serum). Format: physicochemical, human. Conditions: 1 mL serum added to 0.1 g composition (65 mg solid of glycine hydrochloride), 23° C. one minute. The protocol: From the upper layer of the serum in the tube, 0.1 mL of the serum was collected, and the measurement of the pH was performed using a handy pH meter (manufactured by HORIBA, Ltd.).

Where [3] appears, read: Example 13: serum of healthy subject Y, pH 3.1 after acid, 23° C. 48 hours, Tris base to pH 7.8.
Where [4] appears, read: Example 14: subject Y serum, pH 3.1 after acid, 23° C. 48 hours, Tris base to pH 6.0.
[5] abbreviates: Example 15: subject Y serum, pH 3.1 after acid, 23° C. 48 hours, Tris base to pH 7.0.
The mark [6] stands for this setting: Example 16: subject Y serum, pH 3.1 after acid, 23° C. 48 hours, no base mixed (pH 3.1).
The mark [7] stands for this setting: Comparative Example 3: subject X serum, no acid (pH 7.5), 23° C. 48 hours, Tris base to pH 7.7.

Counter-ions that a name gives are not always drawn.

On to `O=C(O)CC(O)(CC(=O)O)C(=O)O` [Citric acid, citric acid], for which the “Fluorescence intensities relative to before preservation” value is given as 104.5% in data set [1] (setting [3]); not below 100% in data set [1] (Example 13: serum of healthy subject Y, pH 3.1 after acid, 23° C. 48 hours, Tris base to pH 7.8, listed as citric acid); 85.0% in data set [1] (setting [4]); not below 70% in data set [1] (Example 14: subject Y serum, pH 3.1 after acid, 23° C. 48 hours, Tris base to pH 6.0, listed as citric acid); 85.5% in data set [1] (setting [5]); not below 70% in data set [1] (Example 15: subject Y serum, pH 3.1 after acid, 23° C. 48 hours, Tris base to pH 7.0, listed as citric acid). The “Fluorescence intensities relative to before preservation” value is listed as 75.2% in data set [1] (setting [6]) and not below 70% in data set [1] (Example 16: subject Y serum, pH 3.1 after acid, 23° C. 48 hours, no base mixed (pH 3.1), listed as citric acid). The “Total value of fluorescence intensities” value in data set [1] (setting [3]) is on record as 1.10 × 10^6; in data set [1] (setting [4]) it was 8.95 × 10^5; in data set [1] (setting [5]) it was 9.00 × 10^5; in data set [1] (setting [6]), 7.92 × 10^5.

On to `NCC(=O)O` [Glycine hydrochloride, glycine hydrochloride], for which the “Total value of fluorescence intensities” value in data set [1] (Example 1: serum of healthy subject X, pH 2.8 after mixing acid, preserved 23° C. 48 hours, Tris base to pH 7.5) is reported as 9.81 × 10^5; in data set [1] (Example 2: subject X serum, pH 2.8 after acid, 23° C. 48 hours, Tris base to pH 7.7), 9.51 × 10^5; in data set [1] (Example 3: subject X serum, pH 2.8 after acid, 23° C. 48 hours, Tris base to pH 8.0), 1.10 × 10^6; in data set [1] (Example 4: subject X serum, pH 2.8 after acid, 23° C. 48 hours, Tris base to pH 8.5), 8.99 × 10^5; in data set [1] (Example 5: subject X serum, pH 2.8 after acid, 23° C. 48 hours, Tris base to pH 9.0), 7.89 × 10^5; in data set [1] (Example 6: subject X serum, pH 2.8 after acid, 23° C. 48 hours, Tris base to pH 6.0), 7.19 × 10^5. For the same compound, the “Total value of fluorescence intensities” value in data set [1] (Example 7: subject X serum, pH 2.8 after acid, 23° C. 48 hours, Tris base to pH 7.0) is on record as 7.23 × 10^5; in data set [1] (Example 8: subject X serum, pH 2.8 after acid, 23° C. 48 hours, no base mixed (pH 2.8)), 6.25 × 10^5; in data set [1] (Example 9: subject X serum, pH 4.0 after acid, 23° C. 48 hours, Tris base to pH 7.7), 1.05 × 10^6; in data set [1] (Example 10: subject X serum, pH 2.8 after acid, 23° C. 2 hours, Tris base to pH 7.7), 8.70 × 10^5; in data set [1] (Example 11: subject X serum, pH 2.8 after acid, 23° C. 6 hours, Tris base to pH 7.7), 9.07 × 10^5; in data set [1] (Example 12: subject X serum, pH 2.8 after acid, 23° C. 96 hours, Tris base to pH 7.7), 1.00 × 10^6. The compound also yielded a pH of serum in data set [2] (upper layer, pH 7.7 before the addition) of 4.5. The “dissolved state in serum” value in data set [2] (visual observation) is “did not quickly dissolve in the serum”.

As for tris(hydroxymethyl)aminomethane, in data set [1] (setting [7]), the “Fluorescence intensities relative to before preservation” value came out at 16.3% and the “Total value of fluorescence intensities” value is recorded as 1.39 × 10^5.
